The target of assay [1] is Met (phospho-Met, HGF-stimulated PC-3 prostate cancer cells) (Homo sapiens (Human), UniProt P08581). As to the kind of experiment: Met autophosphorylation ELISA in PC-3 cells (Example F). The assay is classed as cell-based. The note with it: cellular activity, read-out: c-Met IC50. The gist of the method:
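Serum-starved (3 h) PC-3 cells were treated 1 h with compounds (8-point curve, 0.3% DMSO), then stimulated with 100 ng/mL human HGF for 10 min. Lysate phospho-Met (panTyr) was measured by sandwich ELISA, normalised to DMSO and reference-inhibitor controls. IC50 came from 4-parameter logistic fit.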
For orientation: An ELISA detects its analyte on a solid surface through an enzyme-linked reagent.

Assay [2] addresses Human MET (residues 956-1390) (Homo sapiens (Human), UniProt P08581). Nature of the assay: Human Met kinase assay, HTRF KinEase (Example D-2). The assay is classed as biochemical. The settings on record: read-out: c-Met IC50. The method, then:
Kinase activity and compound inhibition were also investigated using the HTRF® KinEase assay (Cisbio Cat #62TKOPEB) per manufacturer's instructions. In short, compounds were delivered in 300 nL volumes at 10 different concentrations in DMSO (3% final) to empty 384-well assay plates (Corning cat #3824). A mixture of enzyme, […] biotynlated peptide substrate, and buffer in 10 μL volume was added. The assay was started upon the addition of ATP (at Km). The 10 μL reaction was incubated at room temperature. The reaction was stopped upon the addition of detection buffer containing streptavidin-XL665 ([…]) and TK antibody-Eu3+([…]). After a 60 min incubation at room temperature, the fluorescence at 665 nm and 620 nm was read on an Envision microplate reader (Perkin Elmer).
Kinase activity normalized to DMSO (100% activity) and reference compound at […] and (0% activity) was calculated using the fluorescence ratio […]. IC50 values were calculated by nonlinear regression analysis using a 4-parameter logistic curve fit in ActivityBase XE (IDBS).
Example D-2: Human MET (residues 956-1390; CarnaBio, 0.1 ng/well) was also incubated with enzymatic buffer (Cisbio) supplemented with 5 mM MgCl2, 1 mM DTT and 1 mM MnCl2. The mixture was added to the pre-plated compounds. […] The reaction was incubated at room temperature for 40 min and stopped upon the addition of SA-XL665 and TK-antibody both diluted in EDTA-containing kinase detection buffer (Cisbio). The kinase activity was calculated as stated above and the IC50 values were reported.
(Time-resolved FRET reads energy transfer from a long-lived donor to a nearby acceptor.)

Assay [3] addresses Mer (phospho-Mer, MERTK-transfected 293A cells) (Homo sapiens (Human), UniProt Q12866). As to the kind of experiment: Mer autophosphorylation ELISA in transient transfected 293A cells (Example H). The class given is cell-based. The settings on record: cellular activity. The gist of the method: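 293A cells transiently transfected with human MERTK were treated 1 h in serum-free medium with an 8-point compound dilution (0.3% DMSO final). Lysates were assayed by phospho-Mer sandwich ELISA against a phospho-Mer standard; IC50 came from a 4-parameter logistic fit, normalised to DMSO (100%) and reference-inhibitor (0%) controls.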

In assay [4] the target is KDR (phospho-KDR, VEGF165-stimulated HUVEC cells) (Homo sapiens (Human), UniProt P35968). Nature of the assay: KDR autophosphorylation ELISA in HUVEC cells (Example G). The class given is cell-based. The settings on record: cellular activity. An outline of the steps: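 Cells seeded, grown 24 h at 37 °C, starved 24 h serum-free; cpd 8-pt curve, 0.3% DMSO, 1 h; VEGF165 100 ng/mL, 5 min; cold PBS wash, lysis with orthovanadate and protease/phosphatase inhibitors; pKDR ELISA; IC50 by 4-parameter logistic regression.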

[5] abbreviates: Met autophosphorylation ELISA in PC-3 cells.
The mark [6] stands for this setting: protocol of Example D-2 (other compounds).
The mark [7] stands for this setting: Mer autophosphorylation ELISA in transient transfected 293A cells.
The mark [8] stands for this setting: KDR autophosphorylation ELISA in HUVEC cells.

Here are results for 17 compounds from US12371428B2 (Exelixis, Inc., priority 2019, dated 2025).

The term pIC50 denotes the IC50 on a negative log10 scale, so that one unit is a factor of ten.

pIC50: −log10 of the molar value. Counter-ions that a name gives are not always drawn. Like-named read-outs stand apart in the source and are kept apart here.

Sequence of Mer (phospho-Mer, MERTK-transfected 293A cells) (Q12866 21-999): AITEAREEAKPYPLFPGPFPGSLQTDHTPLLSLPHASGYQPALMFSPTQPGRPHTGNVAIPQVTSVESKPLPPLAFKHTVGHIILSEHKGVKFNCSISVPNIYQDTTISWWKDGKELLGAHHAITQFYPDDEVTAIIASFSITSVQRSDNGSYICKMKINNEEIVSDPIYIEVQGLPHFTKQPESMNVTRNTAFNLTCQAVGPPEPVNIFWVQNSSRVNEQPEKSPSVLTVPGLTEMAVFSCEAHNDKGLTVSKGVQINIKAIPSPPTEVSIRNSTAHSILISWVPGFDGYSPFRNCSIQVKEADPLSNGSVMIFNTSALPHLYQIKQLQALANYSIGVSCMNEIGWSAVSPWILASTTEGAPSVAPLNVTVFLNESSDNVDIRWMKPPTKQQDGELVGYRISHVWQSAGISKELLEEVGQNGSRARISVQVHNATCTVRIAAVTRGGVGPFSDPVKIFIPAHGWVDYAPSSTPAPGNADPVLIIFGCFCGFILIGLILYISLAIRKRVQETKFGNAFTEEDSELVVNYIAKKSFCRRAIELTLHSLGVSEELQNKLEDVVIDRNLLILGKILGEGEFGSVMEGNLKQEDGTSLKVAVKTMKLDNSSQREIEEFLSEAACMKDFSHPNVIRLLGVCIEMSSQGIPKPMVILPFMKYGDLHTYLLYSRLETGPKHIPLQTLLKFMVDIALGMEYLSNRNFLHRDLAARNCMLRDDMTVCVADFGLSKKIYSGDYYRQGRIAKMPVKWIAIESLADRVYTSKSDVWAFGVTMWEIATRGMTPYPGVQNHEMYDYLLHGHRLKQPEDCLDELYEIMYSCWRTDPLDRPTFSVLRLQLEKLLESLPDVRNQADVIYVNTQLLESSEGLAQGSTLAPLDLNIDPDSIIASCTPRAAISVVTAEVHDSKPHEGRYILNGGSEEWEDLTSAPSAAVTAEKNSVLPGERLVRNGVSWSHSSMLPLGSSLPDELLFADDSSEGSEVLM
Sequence of Met (phospho-Met, HGF-stimulated PC-3 prostate cancer cells) (P08581 25-1390): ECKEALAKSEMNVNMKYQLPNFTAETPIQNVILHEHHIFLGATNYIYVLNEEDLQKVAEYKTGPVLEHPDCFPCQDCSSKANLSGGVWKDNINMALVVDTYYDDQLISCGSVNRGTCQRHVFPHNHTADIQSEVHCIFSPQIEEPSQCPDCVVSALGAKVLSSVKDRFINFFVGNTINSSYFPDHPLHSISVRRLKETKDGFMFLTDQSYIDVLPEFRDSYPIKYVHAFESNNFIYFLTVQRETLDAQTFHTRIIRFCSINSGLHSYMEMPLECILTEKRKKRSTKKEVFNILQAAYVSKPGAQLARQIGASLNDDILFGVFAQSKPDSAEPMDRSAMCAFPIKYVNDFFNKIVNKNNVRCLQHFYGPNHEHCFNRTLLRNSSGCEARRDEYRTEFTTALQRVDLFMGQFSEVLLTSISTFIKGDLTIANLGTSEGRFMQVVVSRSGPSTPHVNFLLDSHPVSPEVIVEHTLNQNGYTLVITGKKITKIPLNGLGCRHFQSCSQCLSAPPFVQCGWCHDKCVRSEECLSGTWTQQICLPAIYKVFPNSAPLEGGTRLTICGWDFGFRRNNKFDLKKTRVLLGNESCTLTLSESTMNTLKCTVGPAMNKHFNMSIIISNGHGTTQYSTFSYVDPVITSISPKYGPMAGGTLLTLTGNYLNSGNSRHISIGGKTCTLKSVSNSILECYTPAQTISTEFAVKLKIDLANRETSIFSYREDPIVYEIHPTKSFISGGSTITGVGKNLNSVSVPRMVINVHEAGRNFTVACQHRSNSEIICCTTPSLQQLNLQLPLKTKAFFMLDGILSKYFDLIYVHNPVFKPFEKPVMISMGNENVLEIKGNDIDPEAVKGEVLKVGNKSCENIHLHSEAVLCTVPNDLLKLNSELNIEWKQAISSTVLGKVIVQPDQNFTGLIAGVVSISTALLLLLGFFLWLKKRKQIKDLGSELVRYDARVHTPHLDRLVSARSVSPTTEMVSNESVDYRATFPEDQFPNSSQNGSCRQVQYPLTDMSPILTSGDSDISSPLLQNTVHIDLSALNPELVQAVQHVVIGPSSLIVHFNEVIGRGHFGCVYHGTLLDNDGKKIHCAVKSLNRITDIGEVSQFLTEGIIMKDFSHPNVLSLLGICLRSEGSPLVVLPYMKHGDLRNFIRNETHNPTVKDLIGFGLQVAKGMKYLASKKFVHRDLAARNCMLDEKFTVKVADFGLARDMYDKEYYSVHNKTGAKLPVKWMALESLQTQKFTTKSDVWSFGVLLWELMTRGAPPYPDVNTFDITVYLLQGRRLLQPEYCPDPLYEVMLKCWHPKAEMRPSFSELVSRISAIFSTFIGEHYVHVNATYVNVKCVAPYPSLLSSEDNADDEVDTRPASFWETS
Sequence of KDR (phospho-KDR, VEGF165-stimulated HUVEC cells) (P35968 20-1356): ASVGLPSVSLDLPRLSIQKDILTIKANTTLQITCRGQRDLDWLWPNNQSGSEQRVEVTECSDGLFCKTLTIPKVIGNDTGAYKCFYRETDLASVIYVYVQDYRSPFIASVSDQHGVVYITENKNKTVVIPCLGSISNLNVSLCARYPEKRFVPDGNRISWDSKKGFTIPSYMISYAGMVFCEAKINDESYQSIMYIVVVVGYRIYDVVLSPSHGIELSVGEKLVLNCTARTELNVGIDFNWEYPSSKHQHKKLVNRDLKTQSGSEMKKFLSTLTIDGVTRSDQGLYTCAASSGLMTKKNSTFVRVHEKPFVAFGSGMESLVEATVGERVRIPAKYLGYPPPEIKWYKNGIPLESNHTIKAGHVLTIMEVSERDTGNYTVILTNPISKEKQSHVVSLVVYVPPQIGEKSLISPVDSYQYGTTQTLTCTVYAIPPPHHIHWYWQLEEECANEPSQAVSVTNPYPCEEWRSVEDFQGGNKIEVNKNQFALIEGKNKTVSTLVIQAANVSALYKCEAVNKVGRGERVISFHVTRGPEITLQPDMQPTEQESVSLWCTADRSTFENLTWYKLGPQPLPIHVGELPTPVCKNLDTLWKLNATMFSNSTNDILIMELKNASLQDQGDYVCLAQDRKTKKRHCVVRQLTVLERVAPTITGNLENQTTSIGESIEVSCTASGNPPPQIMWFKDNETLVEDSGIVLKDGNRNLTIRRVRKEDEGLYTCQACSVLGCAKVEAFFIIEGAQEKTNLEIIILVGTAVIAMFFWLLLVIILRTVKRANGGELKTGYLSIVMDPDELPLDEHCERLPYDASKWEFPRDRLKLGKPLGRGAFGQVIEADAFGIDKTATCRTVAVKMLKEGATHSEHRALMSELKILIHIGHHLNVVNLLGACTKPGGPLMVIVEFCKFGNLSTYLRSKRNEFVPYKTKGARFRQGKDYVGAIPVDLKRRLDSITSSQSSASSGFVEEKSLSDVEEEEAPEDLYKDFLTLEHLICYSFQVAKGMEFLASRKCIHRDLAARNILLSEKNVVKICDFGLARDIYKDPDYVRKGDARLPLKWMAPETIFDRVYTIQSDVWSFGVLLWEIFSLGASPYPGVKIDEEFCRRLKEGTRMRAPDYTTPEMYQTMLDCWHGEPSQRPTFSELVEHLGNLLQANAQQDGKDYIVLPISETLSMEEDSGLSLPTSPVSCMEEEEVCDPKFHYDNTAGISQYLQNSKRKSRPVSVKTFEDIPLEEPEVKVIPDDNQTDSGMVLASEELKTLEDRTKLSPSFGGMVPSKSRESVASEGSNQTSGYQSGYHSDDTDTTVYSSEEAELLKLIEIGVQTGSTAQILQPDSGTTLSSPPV
Sequence of Human MET (residues 956-1390) (P08581 956-1390): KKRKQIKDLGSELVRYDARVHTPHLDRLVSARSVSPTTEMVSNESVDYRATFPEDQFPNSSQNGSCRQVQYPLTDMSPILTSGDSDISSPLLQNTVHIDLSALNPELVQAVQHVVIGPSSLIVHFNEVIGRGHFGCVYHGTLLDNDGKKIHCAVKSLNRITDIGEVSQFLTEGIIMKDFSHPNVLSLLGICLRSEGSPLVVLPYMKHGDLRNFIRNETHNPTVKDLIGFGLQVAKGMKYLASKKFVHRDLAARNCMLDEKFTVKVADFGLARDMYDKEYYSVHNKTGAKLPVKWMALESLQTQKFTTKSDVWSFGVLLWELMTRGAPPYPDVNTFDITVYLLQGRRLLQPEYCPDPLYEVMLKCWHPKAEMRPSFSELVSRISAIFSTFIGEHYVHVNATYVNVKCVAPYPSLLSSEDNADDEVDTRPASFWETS

`COc1cc2nccc(Oc3ccc(NC(=O)c4cn(CC(F)(F)F)cc(-c5ccc(F)cc5)c4=O)cc3F)c2nc1OC` [Compound 49, N-[4-[(6,7-Dimethoxy-1,5-naphthyridin-4-yl)oxy]-3-fluorophenyl]-5-(4-fluorophenyl)-4-oxo-1-(2,2,2-trifluoroethyl)pyridine-3-carboxamide]: the pIC50 in assay [1] (setting [5]) is over 7.00; in assay [2] (setting [6]), over 7.00; in assay [3] (setting [7]), over 7.00; in assay [4] (setting [8]), under 6.52.

For `COc1cc2nccc(Oc3ccc(NC(=O)c4cn(C5CCC5)cc(-c5ccc(F)cc5)c4=O)cc3F)c2nc1OC` [Compound 50, 1-Cyclobutyl-N-[4-[(6,7-dimethoxy-1,5-naphthyridin-4-yl)oxy]-3-fluorophenyl]-5-(4-fluorophenyl)-4-oxopyridine-3-carboxamide], the pIC50 is over 7.00 in assay [1] (setting [5]), over 7.00 in assay [2] (setting [6]), over 7.00 in assay [3] (setting [7]) and 6.52 to 7.00 in assay [4] (setting [8]).

With `COc1cc2nccc(Oc3ccc(NC(=O)c4cn(-c5cnn(C)c5)cc(-c5ccc(F)cc5)c4=O)cc3F)c2nc1OC` [Compound 51, N-[4-[(6,7-Dimethoxy-1,5-naphthyridin-4-yl)oxy]-3-fluorophenyl]-5-(4-fluorophenyl)-1-(1-methylpyrazol-4-yl)-4-oxopyridine-3-carboxamide], the pIC50 was over 7.00 in assay [1] (setting [5]), over 7.00 in assay [2] (setting [6]), over 7.00 in assay [3] (setting [7]) and under 6.52 in assay [4] (setting [8]).

As for `COc1cc2nccc(Oc3ccc(NC(=O)c4cn(C5CN(C(=O)OC(C)(C)C)C5)cc(-c5ccc(F)cc5)c4=O)cc3F)c2nc1OC` [Compound 114, tert-Butyl 3-[3-[[4-[(6,7-dimethoxy-1,5-naphthyridin-4-yl)oxy]-3-fluorophenyl]carbamoyl]-5-(4-fluorophenyl)-4-oxopyridin-1-yl]azetidine-1-carboxylate], in assay [2] (setting [6]), the pIC50 was over 7.00.

For the compound `Cc1ncc(C(=O)Nc2ccc(Oc3ccnc4cc(Br)cnc34)c(F)c2)c(O)c1-c1ccc(F)cc1` [Compound 133, N-[4-[(7-Bromo-1,5-naphthyridin-4-yl)oxy]-3-fluorophenyl]-5-(4-fluorophenyl)-4-hydroxy-6-methylpyridine-3-carboxamide], the pIC50 is 6.52 to 7.00 in assay [1] (setting [5]), over 7.00 in assay [2] (setting [6]), 6.52 to 7.00 in assay [3] (setting [7]) and 6.52 to 7.00 in assay [4] (setting [8]).

Turning to `COc1cc2nccc(Oc3ccc(NC(=O)c4cn(O)cc(-c5ccc(F)cc5)c4=O)cc3F)c2nc1OC` [Compound 134, N-[4-[(6,7-Dimethoxy-1,5-naphthyridin-4-yl)oxy]-3-fluorophenyl]-5-(4-fluorophenyl)-1-hydroxy-4-oxopyridine-3-carboxamide], the pIC50 was under 6.52 in assay [1] (setting [5]), over 7.00 in assay [2] (setting [6]), 6.52 to 7.00 in assay [3] (setting [7]) and over 7.00 in assay [4] (setting [8]).

Turning to `COc1cc2nccc(Oc3ccc(NC(=O)c4cn(N=C(N(C)C)N(C)C)cc(-c5ccc(F)cc5)c4=O)cc3F)c2nc1OC` [Compound 137, 1-[bis(Dimethylamino)methylideneamino]-N-[4-[(6,7-dimethoxy-1,5-naphthyridin-4-yl)oxy]-3-fluorophenyl]-5-(4-fluorophenyl)-4-oxopyridine-3-carboxamide], the pIC50 in assay [1] (setting [5]) is over 7.00; in assay [2] (setting [6]) it was over 7.00; in assay [3] (setting [7]), over 7.00; in assay [4] (setting [8]), 6.52 to 7.00.

For the compound `COc1cnc2c(Oc3ccc(NC(=O)c4cn(C(C)C)cc(-c5ccc(F)cc5)c4=O)cc3)ccnc2c1` [Compound 145, 5-(4-Fluorophenyl)-N-[4-[(7-methoxy-1,5-naphthyridin-4-yl)oxy]phenyl]-4-oxo-1-propan-2-ylpyridine-3-carboxamide], the pIC50 in assay [1] (setting [5]), in assay [2] (setting [6]) and in assay [3] (setting [7]) was over 7.00 in each case.

With `COc1cnc2c(Oc3ccc(NC(=O)c4c(C)nc(C)c(-c5ccc(F)cc5)c4O)cc3)ccnc2c1` [Compound 158, 5-(4-Fluorophenyl)-4-hydroxy-N-[4-[(7-methoxy-1,5-naphthyridin-4-yl)oxy]phenyl]-2,6-dimethylpyridine-3-carboxamide], the pIC50 in assay [1] (setting [5]), in assay [2] (setting [6]), in assay [3] (setting [7]) and in assay [4] (setting [8]) was over 7.00 in each case.

`COc1cc2nccc(Oc3ccc(NC(=O)c4cn(CCn5ccnc5)cc(-c5ccc(F)cc5)c4=O)cc3F)c2nc1OC` [Compound 159, N-[4-[(6,7-Dimethoxy-1,5-naphthyridin-4-yl)oxy]-3-fluorophenyl]-5-(4-fluorophenyl)-1-(2-imidazol-1-ylethyl)-4-oxopyridine-3-carboxamide]: the negative-log IC50 (pIC50) in assay [1] (setting [5]) is 6.52 to 7.00; in assay [2] (setting [6]), over 7.00; in assay [3] (setting [7]), over 7.00; in assay [4] (setting [8]) it was under 6.52.

Turning to `CNC(=O)c1cc2c(Oc3ccc(NC(=O)c4cnc(C)c(-c5ccc(F)cc5)c4O)cc3)ccnc2cc1OC` [Compound 540, 4-[4-[[5-(4-fluorophenyl)-4-hydroxy-6-methylpyridine-3-carbonyl]amino]phenoxy]-7-methoxy-N-methylquinoline-6-carboxamide], the pIC50 in assay [1] (setting [5]) is 6.52 to 7.00; in assay [2] (protocol of Example D-2), over 7.00; in assay [3] (setting [7]), over 7.00; in assay [4] (setting [8]) it was over 7.00.

In the case of `COc1nc2c(Oc3ccc(NC(=O)c4cnc(C)c(-c5ccc(F)cc5)c4O)cc3F)ccnc2cc1-c1cccnc1` [Compound 604, N-[3-Fluoro-4-[(6-methoxy-7-pyridin-3-yl-1,5-naphthyridin-4-yl)oxy]phenyl]-5-(4-fluorophenyl)-4-hydroxy-6-methylpyridine-3-carboxamide hydrochloride], the pIC50 in assay [1] (setting [5]), in assay [2] (protocol of Example D-2), in assay [3] (setting [7]) and in assay [4] (setting [8]) was over 7.00 in each case.

In the case of `COc1cnc2c(Oc3ccc(NC(=O)c4c(C)n(C)c(C)c(-c5ccc(F)c(C)c5)c4=O)cc3F)ccnc2c1` [Compound 819, N-[3-fluoro-4-[(7-methoxy-1,5-naphthyridin-4-yl)oxy]phenyl]-5-(4-fluoro-3-methylphenyl)-1,2,6-trimethyl-4-oxopyridine-3-carboxamide], the pIC50 is over 7.00 in assay [1] (PC-3 cells), over 7.00 in assay [3] (transfected 293A cells) and under 6.52 in assay [4] (HUVEC cells).

In the case of `COc1cnc2c(Oc3ccc(NC(=O)c4c(C)n(C)c(C)c(-c5ccc(F)c(F)c5)c4=O)cc3F)ccnc2c1` [Compound 820, 5-(3,4-difluorophenyl)-N-[3-fluoro-4-[(7-methoxy-1,5-naphthyridin-4-yl)oxy]phenyl]-1,2,6-trimethyl-4-oxopyridine-3-carboxamide], the pIC50 in assay [1] (PC-3 cells) is over 7.00; in assay [3] (transfected 293A cells) it was over 7.00; in assay [4] (HUVEC cells) it was under 6.52.

In the case of `COc1cc2nccc(Oc3ccc(NC(=O)c4c(C)n(C)c(C)c(-c5ccc(F)c(F)c5)c4=O)cc3F)c2nc1OC` [Compound 822, 5-(3,4-difluorophenyl)-N-[4-[(6,7-dimethoxy-1,5-naphthyridin-4-yl)oxy]-3-fluorophenyl]-1,2,6-trimethyl-4-oxopyridine-3-carboxamide], the results for the pIC50 in assay [1] (PC-3 cells), in assay [3] (transfected 293A cells) and in assay [4] (HUVEC cells) were over 7.00, over 7.00 and under 6.52, respectively.

For `COc1cc2nccc(Oc3ccc(NC(=O)c4c(C)n(C)c(C)c(-c5ccc(F)cc5F)c4=O)cc3F)c2nc1OC` [Compound 823, 5-(2,4-difluorophenyl)-N-[4-[(6,7-dimethoxy-1,5-naphthyridin-4-yl)oxy]-3-fluorophenyl]-1,2,6-trimethyl-4-oxopyridine-3-carboxamide], the figures for the pIC50 in assay [1] (PC-3 cells), in assay [3] (transfected 293A cells) and in assay [4] (HUVEC cells) were over 7.00, over 7.00 and under 6.52, respectively.

On to `COc1cnc2c(Oc3ccc(NC(=O)c4c(C)n(C)c(C)c(-c5ccc(F)cc5F)c4=O)cc3F)ccnc2c1` [Compound 824, 5-(2,4-difluorophenyl)-N-[3-fluoro-4-[(7-methoxy-1,5-naphthyridin-4-yl)oxy]phenyl]-1,2,6-trimethyl-4-oxopyridine-3-carboxamide], for which the pIC50 in assay [1] (PC-3 cells) is over 7.00; in assay [3] (transfected 293A cells), over 7.00; in assay [4] (HUVEC cells), under 6.52.
